Key:
[1] = test system: PC-3; test: Antiproliferative activity against human PC-3 cells assessed as cell growth inhibition incubated for 44 hrs by MTT assay; assay type: functional, cell-based; details: PC-3, 44 h
[2] = test system: MCF7; test: Antiproliferative activity against human MCF7 cells assessed as cell growth inhibition incubated for 44 hrs by MTT assay; assay type: functional, cell-based; details: MCF7, 44 h
[3] = test system: A549; test: Antiproliferative activity against human A549 cells assessed as cell growth inhibition incubated for 44 hrs by MTT assay; assay type: functional, cell-based; details: A549, 44 h
[4] = test system: HCT-116; test: Antiproliferative activity against human HCT-116 cells assessed as cell growth inhibition incubated for 44 hrs by MTT assay; assay type: functional, cell-based; details: HCT-116, 44 h
[5] = Cytotoxicity against human fR2 cells assessed as cell growth inhibition incubated for 44 hrs by MTT assay; assay type: toxicity, cell-based
[6] = test system: HL-60; test: Cytotoxicity against human HL-60 cells; assay type: functional, cell-based
[7] = test system: PC-3; test: Cytotoxicity against human PC-3 cells; assay type: functional, cell-based
[8] = test system: SGC-7901; test: Cytotoxicity against human SGC-7901 cells; assay type: functional, cell-based

Compound	IC50 [1]	IC50 [2]	IC50 [3]	IC50 [4]	IC50 at 44 h [5]	IC50 [6]	IC50 [7]	IC50 [8]
COC(=O)[C@]1([C@H]2CCN(C(=O)c3ccccc3F)C2=O)NCCc2c1[nH]c1ccccc21 (racemic)	5.96 µM	6.96 µM	6.45 µM	8.65 µM	> 100 µM			
COC(=O)[C@]1([C@H]2CCN(C(=O)c3ccc(Cl)cc3)C2=O)NCCc2c1[nH]c1ccccc21 (racemic)	> 100 µM	> 100 µM	20.4 µM	19.7 µM	> 100 µM			
COC(=O)[C@]1([C@H]2CCCN(C(=O)c3ccccc3[N+](=O)[O-])C2=O)NCCc2c1[nH]c1ccccc21	> 100 µM	51.2 µM	39.1 µM	42.2 µM	> 100 µM			
COC(=O)[C@]1([C@H]2CCN(C(=O)C3CCC3)C2=O)NCCc2c1[nH]c1ccccc21 (racemic)	> 100 µM	> 100 µM	23.7 µM	25.6 µM	> 100 µM			
CCOC(=O)[C@]1([C@H]2CCN(C(=O)c3ccccc3Cl)C2=O)NCCc2c1[nH]c1ccccc21 (racemic)	22.8 µM	20.4 µM	72.8 µM	55.8 µM	84 µM			
COC(=O)[C@]1([C@H]2CCN(C(=O)c3ccccc3I)C2=O)NCCc2c1[nH]c1ccccc21 (racemic)	7.02 µM	8.36 µM	5.02 µM	5.76 µM	> 100 µM			
COC(=O)[C@]1([C@H]2CCNC2=O)NCCc2c1[nH]c1cc(OC)ccc21	> 100 µM	81.6 µM	16.6 µM	> 100 µM	> 100 µM			
COC(=O)[C@]1([C@H]2CCCNC2=O)NCCc2c1[nH]c1ccccc21	35 µM	> 100 µM	> 100 µM	> 100 µM	> 100 µM			
COC(=O)[C@]1([C@H]2CCn3c2nc2ccccc2c3=O)NCCc2c1[nH]c1cc(OC)ccc21 (racemic)	12.2 µM	6.22 µM	5.24 µM	15.4 µM	17.9 µM	9.2 µM	21.6 µM	25.4 µM
COC(=O)[C@]1([C@H]2CCN(C(=O)c3ccc(C(F)(F)F)cc3Cl)C2=O)NCCc2c1[nH]c1ccccc21 (racemic)	13.5 µM	4.51 µM	0.845 µM	3 µM	39.2 µM			
COC(=O)[C@]1([C@H]2CCCN(C(=O)c3ccccc3Cl)C2=O)NCCc2c1[nH]c1ccccc21 (racemic)	43.7 µM	47.7 µM	5.21 µM	5.34 µM	> 100 µM			
COC(=O)[C@]1([C@H]2CCN(C(=O)c3ccccc3[N+](=O)[O-])C2=O)NCCc2c1[nH]c1cc(OC)ccc21	31 µM	16.1 µM	12.7 µM	6.19 µM	17.8 µM			
COC(=O)[C@@H]1Cc2c([nH]c3ccccc23)[C@@](C(=O)OC)([C@H]2CCCN(C(=O)c3ccccc3[N+](=O)[O-])C2=O)N1	> 100 µM	> 100 µM	19.4 µM	> 100 µM	> 100 µM			
COC(=O)[C@@H]1Cc2c([nH]c3ccccc23)[C@@](C(=O)OC)([C@H]2CCCn3c2nc2ccccc2c3=O)N1	13 µM	6.2 µM	10.4 µM	6.26 µM	33.2 µM			
COC(=O)[C@]1([C@H]2CCN(C(=O)c3ccc(F)cc3)C2=O)NCCc2c1[nH]c1ccccc21 (racemic)	17 µM	> 5.04 µM	7.8 µM	10.1 µM	35.8 µM			
COC(=O)[C@]1([C@H]2CCN(C(=O)c3ccccc3)C2=O)NCCc2c1[nH]c1ccccc21 (racemic)	> 100 µM	> 100 µM	17.3 µM	16.4 µM	> 100 µM			
CCOC(=O)[C@]1([C@H]2CCN(C(=O)c3ccccc3[N+](=O)[O-])C2=O)NCCc2c1[nH]c1ccccc21 (racemic)	> 100 µM	28.1 µM	10.7 µM	> 100 µM	> 100 µM			

Compound	IC50 [1]	IC50 [2]	IC50 [3]	IC50 [4]	IC50 at 44 h [5]	IC50 [6]	IC50 [7]	IC50 [8]
COC(=O)[C@@H]1Cc2c([nH]c3ccccc23)[C@@](C(=O)OC)([C@H]2CCNC2=O)N1	> 100 µM	> 100 µM	20.4 µM	27.4 µM	> 100 µM			
CCOC(=O)[C@]1([C@H]2CCNC2=O)NCCc2c1[nH]c1ccccc21 (racemic)	> 100 µM	> 100 µM	> 100 µM	> 100 µM	> 100 µM			
COC(=O)[C@]1([C@H]2CCCCn3c2nc2ccccc2c3=O)NCCc2c1[nH]c1ccccc21	6.47 µM	6.95 µM	7.91 µM	5.35 µM	35.6 µM			
COC(=O)[C@]1([C@@H]2CCNC2=O)NCCc2c1[nH]c1cc(OC)ccc21	91.7 µM	> 100 µM	> 100 µM	7.48 µM	> 100 µM			
COC(=O)[C@]1([C@H]2CCN(C(=O)c3ccc(C)cc3[N+](=O)[O-])C2=O)NCCc2c1[nH]c1ccccc21 (racemic)	> 100 µM	> 100 µM	16.3 µM	> 100 µM	> 100 µM			
COC(=O)[C@]1([C@H]2CCN(C(=O)c3ccc(Cl)cc3[N+](=O)[O-])C2=O)NCCc2c1[nH]c1ccccc21 (racemic)	> 100 µM	> 100 µM	> 100 µM	> 100 µM	> 100 µM			
COC(=O)[C@]1([C@H]2CCCCNC2=O)NCCc2c1[nH]c1ccccc21	> 100 µM	93.3 µM	> 100 µM	> 100 µM	> 100 µM			
COC(=O)[C@]1([C@H]2CCNC2=O)NCCc2c1[nH]c1ccccc21	75.1 µM	> 100 µM	39.8 µM	25.6 µM	> 100 µM			
COC(=O)[C@]1([C@H]2CCN(C(=O)c3ccccc3Br)C2=O)NCCc2c1[nH]c1ccccc21 (racemic)	6.23 µM	8.12 µM	3.37 µM	3.92 µM	89.8 µM			
COC(=O)[C@]1([C@H]2CCCCN(C(=O)c3ccccc3[N+](=O)[O-])C2=O)NCCc2c1[nH]c1ccccc21	36.5 µM	7.43 µM	35.8 µM	15.1 µM	30.2 µM			
COC(=O)[C@]1([C@H]2CCN(C(=O)c3cccs3)C2=O)NCCc2c1[nH]c1ccccc21 (racemic)	94.4 µM	15.9 µM	17.9 µM	14 µM	39.2 µM			
COC(=O)[C@]1([C@H]2CCN(C(=O)c3ccc(Cl)cc3Cl)C2=O)NCCc2c1[nH]c1ccccc21 (racemic)	11.1 µM	8.36 µM	10.8 µM	8.79 µM	> 100 µM			
COC(=O)[C@]1([C@H]2CCN(C(=O)c3ccccc3[N+](=O)[O-])C2=O)NCCc2c1[nH]c1ccccc21	> 100 µM	51.3 µM	> 100 µM	> 100 µM	> 100 µM			
COC(=O)[C@]1([C@H]2CCCn3c2nc2ccccc2c3=O)NCCc2c1[nH]c1ccccc21	4.95 µM	3.28 µM	6.88 µM	4.15 µM	93.6 µM			
COC(=O)[C@]1([C@H]2CCN(C(=O)c3ccccc3Cl)C2=O)NCCc2c1[nH]c1ccccc21 (racemic)	2.39 µM	1.62 µM	1.12 µM	4.12 µM	20 µM			
COC(=O)[C@]1([C@H]2CCN(C(=O)c3ccc(C)cc3C)C2=O)NCCc2c1[nH]c1ccccc21 (racemic)	59.7 µM	> 100 µM	16.3 µM	11.2 µM	> 100 µM			
